In assay [1] the target is T1, cGMP-dependent protein kinase 2 (Homo sapiens) (UniProt Q13237).
T1 sequence (whole entry): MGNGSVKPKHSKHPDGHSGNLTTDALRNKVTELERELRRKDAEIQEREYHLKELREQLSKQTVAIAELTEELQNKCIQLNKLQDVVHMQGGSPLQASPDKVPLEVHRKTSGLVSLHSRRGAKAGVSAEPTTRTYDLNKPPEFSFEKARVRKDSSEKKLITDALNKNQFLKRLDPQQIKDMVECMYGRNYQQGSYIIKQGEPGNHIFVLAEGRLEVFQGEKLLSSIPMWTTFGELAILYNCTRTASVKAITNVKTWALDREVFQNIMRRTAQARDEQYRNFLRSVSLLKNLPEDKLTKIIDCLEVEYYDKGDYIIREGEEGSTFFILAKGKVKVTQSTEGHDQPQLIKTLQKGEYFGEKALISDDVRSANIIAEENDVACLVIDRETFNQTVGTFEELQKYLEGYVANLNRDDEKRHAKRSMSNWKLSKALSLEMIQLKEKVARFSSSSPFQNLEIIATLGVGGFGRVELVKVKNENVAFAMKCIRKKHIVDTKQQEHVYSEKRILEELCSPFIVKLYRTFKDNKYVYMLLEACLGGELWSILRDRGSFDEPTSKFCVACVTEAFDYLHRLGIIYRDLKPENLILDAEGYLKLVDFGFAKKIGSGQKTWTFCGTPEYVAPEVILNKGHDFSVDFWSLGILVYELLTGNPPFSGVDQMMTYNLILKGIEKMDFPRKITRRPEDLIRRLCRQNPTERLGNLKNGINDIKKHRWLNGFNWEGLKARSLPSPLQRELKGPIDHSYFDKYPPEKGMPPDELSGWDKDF
Conditions: Compound concentration 1000.0 nM.

Assay [2] addresses Ribosomal protein S6 kinase alpha-6 (Homo sapiens) (UniProt Q9UK32). Conditions: Compound concentration 1000.0 nM.
Assay [3] deals with Ribosomal protein S6 kinase alpha-3 (Homo sapiens) (UniProt P51812). Conditions: Compound concentration 1000.0 nM.
Assay [4] addresses Casein kinase I isoform epsilon (Homo sapiens) (UniProt P49674). Conditions: Compound concentration 1000.0 nM.
In assay [5] the target is Mitogen-activated protein kinase kinase kinase 1 (Homo sapiens) (UniProt Q13233). Conditions: Compound concentration 1000.0 nM.
Assay [6] concerns the target Serine/threonine-protein kinase SIK1 (Homo sapiens) (UniProt P57059). As to conditions: Compound concentration 1000.0 nM.
For assay [7], the system named is Receptor-type tyrosine-protein kinase FLT3 (Homo sapiens), P36888 [UNDEFINED MUTATION]. Conditions: Compound concentration 1000.0 nM.
For assay [8], the target named is Serine/threonine-protein kinase Nek5 (Homo sapiens) (UniProt Q6P3R8). Conditions: Compound concentration 1000.0 nM.
In assay [9] the target is Histamine H4 receptor (Homo sapiens) (UniProt Q9H3N8). As to conditions: Compound concentration 10.0 uM.
The target of assay [10] is Serine/threonine-protein kinase STK11 (Homo sapiens) (UniProt Q15831). Conditions: Compound concentration 1000.0 nM.
Assay [11] addresses T2, NUAK family SNF1-like kinase 1 (Homo sapiens) (UniProt O60285).
T2 sequence (whole entry): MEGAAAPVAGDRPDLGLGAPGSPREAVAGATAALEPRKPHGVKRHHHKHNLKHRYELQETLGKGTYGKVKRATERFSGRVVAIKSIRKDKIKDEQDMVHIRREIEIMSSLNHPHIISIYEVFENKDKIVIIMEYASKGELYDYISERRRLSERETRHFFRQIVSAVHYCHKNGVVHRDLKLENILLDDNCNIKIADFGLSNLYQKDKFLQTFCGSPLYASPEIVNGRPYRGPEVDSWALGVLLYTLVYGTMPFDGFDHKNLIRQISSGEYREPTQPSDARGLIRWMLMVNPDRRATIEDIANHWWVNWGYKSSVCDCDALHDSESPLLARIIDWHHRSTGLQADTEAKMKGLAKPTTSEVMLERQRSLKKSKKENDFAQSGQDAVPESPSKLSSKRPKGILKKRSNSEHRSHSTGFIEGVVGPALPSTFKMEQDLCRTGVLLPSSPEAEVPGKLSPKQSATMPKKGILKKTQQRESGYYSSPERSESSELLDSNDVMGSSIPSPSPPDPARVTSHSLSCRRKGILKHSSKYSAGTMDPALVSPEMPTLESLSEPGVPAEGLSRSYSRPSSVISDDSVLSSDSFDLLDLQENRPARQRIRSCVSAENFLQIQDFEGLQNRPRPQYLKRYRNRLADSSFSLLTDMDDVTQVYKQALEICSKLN
Conditions: Compound concentration 1000.0 nM.

In assay [12] the target is Phosphatidylinositol 4,5-bisphosphate 3-kinase catalytic subunit beta isoform (Homo sapiens) (UniProt P42338). Conditions: Compound concentration 1000.0 nM.
The target of assay [13] is T3, Dual specificity protein kinase TTK (Homo sapiens) (UniProt P33981).
T3 sequence (whole entry): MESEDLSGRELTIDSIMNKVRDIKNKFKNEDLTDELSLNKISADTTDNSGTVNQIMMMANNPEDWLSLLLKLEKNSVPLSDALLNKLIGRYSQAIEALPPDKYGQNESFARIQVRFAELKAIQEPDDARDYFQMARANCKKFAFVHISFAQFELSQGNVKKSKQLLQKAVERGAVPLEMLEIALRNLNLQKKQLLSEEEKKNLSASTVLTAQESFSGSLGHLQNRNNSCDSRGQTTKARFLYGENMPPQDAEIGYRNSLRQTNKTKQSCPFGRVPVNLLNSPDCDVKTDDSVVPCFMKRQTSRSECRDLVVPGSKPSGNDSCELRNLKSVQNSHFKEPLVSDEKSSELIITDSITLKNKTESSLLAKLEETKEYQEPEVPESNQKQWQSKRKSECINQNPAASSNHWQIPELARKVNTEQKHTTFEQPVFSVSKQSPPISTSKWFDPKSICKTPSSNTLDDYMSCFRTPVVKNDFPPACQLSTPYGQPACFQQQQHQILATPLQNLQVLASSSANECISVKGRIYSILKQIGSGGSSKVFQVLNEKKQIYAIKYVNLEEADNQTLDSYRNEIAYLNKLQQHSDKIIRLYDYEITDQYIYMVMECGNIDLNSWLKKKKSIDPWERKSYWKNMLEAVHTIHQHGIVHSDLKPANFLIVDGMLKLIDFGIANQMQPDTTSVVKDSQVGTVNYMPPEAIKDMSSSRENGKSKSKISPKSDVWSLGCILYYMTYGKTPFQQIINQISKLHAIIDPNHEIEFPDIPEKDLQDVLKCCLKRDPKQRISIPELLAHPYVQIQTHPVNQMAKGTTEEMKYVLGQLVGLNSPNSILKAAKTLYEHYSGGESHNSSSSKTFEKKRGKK
As to conditions: Compound concentration 1000.0 nM.

The target of assay [14] is Interleukin-1 receptor-associated kinase 3 (Homo sapiens) (UniProt Q9Y616). Conditions: Compound concentration 1000.0 nM.

The source of these data is ChEMBL document CHEMBL4507276 (2021).

Each structure is given as a SMILES string.

Sequence of Receptor-type tyrosine-protein kinase FLT3 (Homo sapiens), P36888 [UNDEFINED MUTATION] (P36888 whole entry, looked up, change not shown): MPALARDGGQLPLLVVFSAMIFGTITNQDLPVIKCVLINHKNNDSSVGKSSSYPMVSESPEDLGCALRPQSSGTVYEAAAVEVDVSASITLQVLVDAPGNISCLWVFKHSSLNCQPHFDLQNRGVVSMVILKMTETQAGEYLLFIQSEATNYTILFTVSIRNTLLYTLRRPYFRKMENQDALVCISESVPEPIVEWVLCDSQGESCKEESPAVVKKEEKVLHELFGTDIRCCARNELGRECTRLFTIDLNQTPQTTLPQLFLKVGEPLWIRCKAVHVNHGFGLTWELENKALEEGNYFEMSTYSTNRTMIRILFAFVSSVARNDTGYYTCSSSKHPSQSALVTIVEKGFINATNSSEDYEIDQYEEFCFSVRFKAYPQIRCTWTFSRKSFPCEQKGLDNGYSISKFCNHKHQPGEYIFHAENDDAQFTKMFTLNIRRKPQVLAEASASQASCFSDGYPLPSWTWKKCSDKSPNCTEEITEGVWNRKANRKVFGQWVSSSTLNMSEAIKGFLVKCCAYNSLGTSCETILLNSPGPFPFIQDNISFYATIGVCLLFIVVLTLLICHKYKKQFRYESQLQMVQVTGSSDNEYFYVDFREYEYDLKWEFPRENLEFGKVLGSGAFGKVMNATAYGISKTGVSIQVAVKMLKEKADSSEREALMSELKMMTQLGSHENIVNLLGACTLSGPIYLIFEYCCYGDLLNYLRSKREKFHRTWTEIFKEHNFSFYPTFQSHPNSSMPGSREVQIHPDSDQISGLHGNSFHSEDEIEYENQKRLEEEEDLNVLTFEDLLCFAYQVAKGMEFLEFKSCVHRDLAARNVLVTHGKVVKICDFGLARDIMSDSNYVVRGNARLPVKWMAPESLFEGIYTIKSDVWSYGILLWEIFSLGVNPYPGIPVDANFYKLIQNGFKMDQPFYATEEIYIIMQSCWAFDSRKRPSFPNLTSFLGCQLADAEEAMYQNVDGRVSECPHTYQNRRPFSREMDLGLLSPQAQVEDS
Sequence of Serine/threonine-protein kinase Nek5 (Homo sapiens) (Q6P3R8 whole entry): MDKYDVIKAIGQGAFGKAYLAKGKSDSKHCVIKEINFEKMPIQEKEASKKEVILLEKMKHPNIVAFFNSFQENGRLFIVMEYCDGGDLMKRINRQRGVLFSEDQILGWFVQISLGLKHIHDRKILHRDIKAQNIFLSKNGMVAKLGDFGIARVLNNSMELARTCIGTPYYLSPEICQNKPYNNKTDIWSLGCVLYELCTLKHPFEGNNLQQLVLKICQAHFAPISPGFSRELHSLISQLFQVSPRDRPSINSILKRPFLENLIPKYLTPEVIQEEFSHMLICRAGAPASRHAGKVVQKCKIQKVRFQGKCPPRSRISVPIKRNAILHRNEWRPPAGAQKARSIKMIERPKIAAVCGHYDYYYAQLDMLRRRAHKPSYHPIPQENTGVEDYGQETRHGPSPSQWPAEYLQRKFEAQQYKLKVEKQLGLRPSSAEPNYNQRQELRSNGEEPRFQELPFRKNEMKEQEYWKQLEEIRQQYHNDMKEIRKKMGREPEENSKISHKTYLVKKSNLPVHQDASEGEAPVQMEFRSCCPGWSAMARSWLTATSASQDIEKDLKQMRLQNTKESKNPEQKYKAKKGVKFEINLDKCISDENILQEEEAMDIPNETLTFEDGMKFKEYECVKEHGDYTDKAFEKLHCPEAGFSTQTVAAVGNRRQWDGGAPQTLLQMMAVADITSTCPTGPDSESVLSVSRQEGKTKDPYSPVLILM
Sequence of Serine/threonine-protein kinase SIK1 (Homo sapiens) (P57059 whole entry): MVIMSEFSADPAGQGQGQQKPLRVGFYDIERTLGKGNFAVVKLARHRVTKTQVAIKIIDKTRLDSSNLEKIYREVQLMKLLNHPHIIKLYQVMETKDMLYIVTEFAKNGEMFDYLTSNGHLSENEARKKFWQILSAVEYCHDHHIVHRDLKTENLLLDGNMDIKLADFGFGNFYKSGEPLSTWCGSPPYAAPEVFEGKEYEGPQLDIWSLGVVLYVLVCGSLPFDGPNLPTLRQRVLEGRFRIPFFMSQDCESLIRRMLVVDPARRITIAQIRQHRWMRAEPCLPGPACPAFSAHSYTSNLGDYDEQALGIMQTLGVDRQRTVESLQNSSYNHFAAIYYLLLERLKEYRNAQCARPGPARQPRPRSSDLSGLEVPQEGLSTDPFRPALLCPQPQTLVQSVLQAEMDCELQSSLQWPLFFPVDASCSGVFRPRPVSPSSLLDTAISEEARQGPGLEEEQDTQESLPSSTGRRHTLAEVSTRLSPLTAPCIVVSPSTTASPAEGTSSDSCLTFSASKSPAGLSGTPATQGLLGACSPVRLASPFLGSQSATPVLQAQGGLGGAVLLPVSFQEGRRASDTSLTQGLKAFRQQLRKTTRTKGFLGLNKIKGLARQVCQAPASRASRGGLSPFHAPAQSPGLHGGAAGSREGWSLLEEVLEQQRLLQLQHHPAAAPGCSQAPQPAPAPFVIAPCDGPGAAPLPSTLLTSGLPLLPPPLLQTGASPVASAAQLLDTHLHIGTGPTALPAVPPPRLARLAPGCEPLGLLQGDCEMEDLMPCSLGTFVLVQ
Sequence of Casein kinase I isoform epsilon (Homo sapiens) (P49674 whole entry, looked up, canonical isoform): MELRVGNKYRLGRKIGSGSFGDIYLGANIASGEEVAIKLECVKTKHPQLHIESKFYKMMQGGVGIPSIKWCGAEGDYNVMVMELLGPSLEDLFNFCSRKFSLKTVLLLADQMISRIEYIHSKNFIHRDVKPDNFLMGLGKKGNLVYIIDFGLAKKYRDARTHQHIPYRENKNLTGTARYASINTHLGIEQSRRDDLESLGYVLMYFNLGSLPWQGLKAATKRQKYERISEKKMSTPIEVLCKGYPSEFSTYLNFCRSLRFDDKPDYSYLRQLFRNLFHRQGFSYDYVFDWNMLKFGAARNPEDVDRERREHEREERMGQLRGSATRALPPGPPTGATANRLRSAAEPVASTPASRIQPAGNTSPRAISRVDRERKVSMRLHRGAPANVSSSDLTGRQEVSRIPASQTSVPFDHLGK
Sequence of Interleukin-1 receptor-associated kinase 3 (Homo sapiens) (Q9Y616 whole entry): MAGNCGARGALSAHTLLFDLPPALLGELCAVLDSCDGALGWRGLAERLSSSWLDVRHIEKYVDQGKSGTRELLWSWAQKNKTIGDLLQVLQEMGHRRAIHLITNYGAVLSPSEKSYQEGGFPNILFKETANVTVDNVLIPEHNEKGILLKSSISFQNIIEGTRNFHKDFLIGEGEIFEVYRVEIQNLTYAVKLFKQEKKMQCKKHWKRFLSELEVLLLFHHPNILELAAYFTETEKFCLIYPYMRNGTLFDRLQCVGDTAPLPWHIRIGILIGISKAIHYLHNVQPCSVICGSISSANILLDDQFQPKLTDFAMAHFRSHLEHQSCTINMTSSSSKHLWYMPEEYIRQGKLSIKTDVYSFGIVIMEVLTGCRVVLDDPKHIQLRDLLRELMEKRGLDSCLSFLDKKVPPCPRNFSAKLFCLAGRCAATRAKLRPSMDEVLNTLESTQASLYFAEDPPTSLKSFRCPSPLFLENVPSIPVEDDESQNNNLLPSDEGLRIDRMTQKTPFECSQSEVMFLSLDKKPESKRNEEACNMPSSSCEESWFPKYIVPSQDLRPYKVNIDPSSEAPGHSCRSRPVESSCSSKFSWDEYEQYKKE
Sequence of Serine/threonine-protein kinase STK11 (Homo sapiens) (Q15831 whole entry): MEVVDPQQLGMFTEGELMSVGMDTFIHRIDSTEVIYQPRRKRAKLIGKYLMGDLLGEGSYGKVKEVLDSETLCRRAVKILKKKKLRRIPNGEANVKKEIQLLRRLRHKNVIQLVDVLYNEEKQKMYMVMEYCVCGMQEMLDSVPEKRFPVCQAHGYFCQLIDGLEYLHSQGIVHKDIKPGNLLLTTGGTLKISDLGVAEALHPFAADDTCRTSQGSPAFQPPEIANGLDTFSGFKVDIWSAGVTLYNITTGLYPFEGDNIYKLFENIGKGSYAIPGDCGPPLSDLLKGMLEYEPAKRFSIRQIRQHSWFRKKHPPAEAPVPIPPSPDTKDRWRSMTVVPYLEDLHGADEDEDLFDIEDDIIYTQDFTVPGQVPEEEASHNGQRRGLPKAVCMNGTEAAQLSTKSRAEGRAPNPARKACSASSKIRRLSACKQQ
Sequence of Ribosomal protein S6 kinase alpha-6 (Homo sapiens) (Q9UK32 whole entry): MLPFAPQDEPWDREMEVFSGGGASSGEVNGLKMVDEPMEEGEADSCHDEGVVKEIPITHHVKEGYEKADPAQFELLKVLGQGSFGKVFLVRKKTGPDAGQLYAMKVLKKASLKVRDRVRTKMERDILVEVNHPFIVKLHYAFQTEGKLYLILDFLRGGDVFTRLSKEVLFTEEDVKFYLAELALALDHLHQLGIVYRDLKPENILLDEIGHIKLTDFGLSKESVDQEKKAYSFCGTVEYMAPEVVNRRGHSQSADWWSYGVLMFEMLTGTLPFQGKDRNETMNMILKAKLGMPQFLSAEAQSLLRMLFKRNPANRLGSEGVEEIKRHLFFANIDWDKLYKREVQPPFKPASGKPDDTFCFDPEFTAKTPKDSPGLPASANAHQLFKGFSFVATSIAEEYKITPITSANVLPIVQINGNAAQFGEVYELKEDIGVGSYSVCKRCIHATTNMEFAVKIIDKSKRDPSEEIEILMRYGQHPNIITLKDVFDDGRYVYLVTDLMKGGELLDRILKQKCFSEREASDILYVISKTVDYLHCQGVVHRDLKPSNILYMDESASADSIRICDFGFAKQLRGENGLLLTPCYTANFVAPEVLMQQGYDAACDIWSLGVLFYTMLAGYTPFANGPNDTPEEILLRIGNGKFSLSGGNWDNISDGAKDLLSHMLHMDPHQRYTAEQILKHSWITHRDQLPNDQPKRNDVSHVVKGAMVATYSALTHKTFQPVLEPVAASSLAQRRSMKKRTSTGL

For `CN(C)C(=O)Cn1cc(-c2nc(C3(c4ccc(-c5cnc(N)nc5)cc4)CC3)no2)cn1` [BI 0153], the residual activity is 100% in [1]; 83% in [2]; 92% in assay [3]; 100% in assay [4]; 77% in [5]; 86% in assay [6]. Besides, the residual activity is 85% in assay [7]; 89% in assay [8]; 100% in assay [10]; 82% in assay [11]; 96% in assay [12]; 100% in assay [13]. In addition, the residual activity in assay [14] is 96%. Moreover, the inhibition (usually the change of the read-out against control, counted positive when it falls) in [9] was 36.6%.
For `CN(C)C(=O)Cn1cc(-c2nc([C@@](C)(c3ccc(-c4cnc(N)nc4)cc3)C3CC3)no2)cn1` [BI 665915], the residual activity was 85% in assay [1]; 96% in [2]; 83% in assay [3]; 97% in assay [4]; 90% in [5]; 52% in assay [6]. Besides, the residual activity is 100% in [7]; 89% in assay [8]; 77% in [10]; 100% in assay [11]; 100% in assay [12]; 100% in [13]. The residual activity in [14] is 100%. For the same molecule, in assay [9], the inhibition is 55.2%.
